Results published in US20250122193A1, “NOVEL PYRIDOCARBAZOLIUM COMPOUNDS AND MEDICAL USES THEREOF” (MyCural Therapeutics, priority 2021, published 2025).

How the values were obtained:
[1] = oxidative metabolism in mouse liver microsomes
Source text: First, we performed a pharmacokinetic study of the behavior of the molecule in mice.

[2] = tested on: SKN-DZ neuroblastoma cells with MYCN-amplification; experiment: 3D colony formation in agarose, SK-N-DZ; type: cell-based; details: 3D cultures, 2 weeks
Procedure: C) 3D cultures of SKN-DZ neuroblastoma cells with MYCN-amplification exposed to indicated concentrations of MYCMI-7 for 2 weeks. Colony formation in agarose was detected by MTT staining and quantified.
For anchorage-independent growth assay, cells were suspended in 250 μl 0.35% SeaPlaque agarose (InVitro) and seeded into 24 well plates which had previously been coated with a bottom layer of 250 μl 0.7% agarose. After 16 days, the colonies were stained with 100 μg/ml MTT (Sigma) overnight and colonies were counted.

[3] = tested on: normal human peripheral blood lymphocytes; experiment: apoptosis assay (Cell Death Detection ELISA), peripheral blood lymphocytes; type: cell-based; details: 5 μM, 24 and 48 hours
Procedure: FIG. 4: MYCMI-7 induces apoptosis in malignant cells and growth arrest in normal cells. A) Cell cycle distribution analysis by flow cytometry of MYC-regulated P493-6 cells and normal rat embryo fibroblasts (REFs). Left panel, P493-6 synchronized in G0 by 24 hours treatment of […] doxycycline. Doxycycline was removed and the cells were harvested 48 hours after the addition of fresh medium containing DMSO or 5 μM MYCMI-7. Right panel, flow cytometry analysis of normal REFs treated with DMSO or 5 μM MYCMI-7. B) Apoptosis assay using the Cell Death Detection ELISA^plus kit. Left panel, immortalized Rat1 fibroblasts with different MYC status after 24 hours of 5 μM MYCMI-7 treatment, middle panel and right panels, normal REFs and normal peripheral blood lymphocytes, respectively, after 24 and 48 hours of 5 μM MYCMI-7 treatment. C) Measurement of viability and apoptosis by Apo-Tox Glo Triplex assay in A375 melanoma cells after 3 days of treatment with MYCMI-7 with the indicated concentrations. […] E) NHDFs treated with 3 μM MYCMI-7 for 72 hrs. Viability was measured by trypan blue exclusion assay. F) Cell growth measured with Cyt62 assay of primary normal human epidermal melanocytes (NHEM) treated for 72 hours with MYCMI-7, G) Viability measured by trypan blue exclusion assay of NHEM after treatment for 72 hours with MYCMI-7.

## CCN(CC)CC[n+]1ccc2c(C)c3[nH]c4ccccc4c3c(C)c2c1 [MYCMI-7, 2-(5,11-Dimethyl-6H-25-pyrido[4,3-b]carbazol-2-yl)-N,N-diethylethanamine bromide]
[1]
  stability against oxidative metabolism: stable
[2]
  GI50: nanomolar range
[3]
  apoptosis: did not induce apoptosis
